Measurements: paper PMC4104029, “Mechanism of Action of Compound-13: An α1-Selective Small Molecule Activator of AMPK” (Chemistry & Biology, 2014)

Tested on: rat liver AMPK (mixture of α1β1γ1 and α2β1γ1)
Experiment: Rat liver AMPK activation assay
Assay type: biochemical
Details: for EC50: 0.2 mM ATP and 0.2 mM AMARA
Experimental: AMPK phosphotransferase activity was assayed in reactions (50 μl) containing 50 mM HEPES, pH 7.4, 10 mM MgCl2, 0.1 mM EGTA, 1 mM DTT, 0.01% BRIJ-35, 100 μM [γ-^32P]ATP (∼250 CPM⋅pmol^−1) and 200 μM AMARA (AMARAASAAALARRR). Reactions were started by the addition of AMPK (5 mU), incubated for 20 min at 30°C and quenched by spotting onto P81 and immersion in 75 mM H3PO4. Washed filters were dried and [^32P] incorporation determined by Cherenkov counting. AMPK activity in cell extracts was determined by immunoprecipitation with AMPKα1 or AMPKα2 antibodies from 50 μg material, as previously described ([Hunter et al., 2011]). Results are expressed as picomoles Pi incorporated per minute-milligram or the fold increase in activity compared to controls in the absence of the compound and were fitted to the following equation: v=vo+{(vmax−vo)[A]^h/Kah+[A]^h}, where v is the velocity, vo is the velocity in the absence of compound, [A] is the concentration of activator, Ka is the concentration of activator that increases velocity to 50% maximal stimulated activity, and h is the Hill coefficient. […]
Figure S3, related to Figure 2. C2 is a partial agonist of rat liver AMPK and is antagonised by ADP but has no effect on isolated AMPKα subunits. (A) Full-length human AMPKα1 and α2 subunits were prepared in E.coli and activated with CAMKK as described in Methods. Isolated AMPKα subunits were assayed under standard conditions in the presence of C2 (0 - 1000 nM). Results are expressed normalised to maximal activity in the absence of ligand and represent the average ± SD of three independent experiments on a single preparation of kinase. (B) Rat liver purified AMPK (containing α1 and α2 subunits in complex with β1γ1) was assayed for activation by AMP and C2 in the presence of 0.2 mM ATP and 0.2 mM AMARA as described in Methods. Results are expressed as mean Pi incorporated in nmol.min-1.mg-1 ± SD. (C) Rat liver AMPK was assayed under standard conditions in the presence of saturating AMP (30 µM) and increasing concentrations of C2 (0 - 10 µM). (D) Recombinant AMPK α1β1γ1 was assayed under standard conditions in the presence of 1 μM C2 and increasing concentrations of ADP (0 - 200 μM). Results are expressed as fold increase in activity relative to controls in the absence of compound ± SD.
(E) C2 and AMP displace a GST-AMPKγ2 subunit fusion from ATP-γ-Sepharose. A purified C-terminal fragment of AMPKγ2 bearing CBS domains 1-4 was absorbed onto ATP- […]
Sepharose. […]
PAGE and staining with colloidal Coomassie. (F) Recombinant PP2Cα was assayed by monitoring the release of phosphate from 100 μM EFLR(pT)SCGS in the presence of increasing concentrations of C2 (0 – 100 μM). The plant alkaloid, sanguinarine was included as a positive control for inhibition of phosphatase activity. […]

SMILES: Nc1ncnc2c1ncn2[C@@H]1O[C@H](COP(=O)(O)O)[C@@H](O)[C@H]1O [AMP, reference compound]
- EC50: 3600 ± 200 nM

SMILES: O=P(O)(O)c1ccc(-c2cc(O)on2)o1 [Compound C2, 5-(5-hydroxyl-isoxazol-3-yl)-furan-2-phosphonic acid]
- extent of activation compared with AMP: only half the extent
- EC50: 65 ± 4 nM
- reduction of activity stimulated by 30 μM AMP (C2 0–10 µM): ≈ 50%
